One assay concerns the target T1, MetRS (T. brucei) (Trypanosoma brucei brucei, UniProt Q38C91).
T1 sequence (Q38C91 1-773): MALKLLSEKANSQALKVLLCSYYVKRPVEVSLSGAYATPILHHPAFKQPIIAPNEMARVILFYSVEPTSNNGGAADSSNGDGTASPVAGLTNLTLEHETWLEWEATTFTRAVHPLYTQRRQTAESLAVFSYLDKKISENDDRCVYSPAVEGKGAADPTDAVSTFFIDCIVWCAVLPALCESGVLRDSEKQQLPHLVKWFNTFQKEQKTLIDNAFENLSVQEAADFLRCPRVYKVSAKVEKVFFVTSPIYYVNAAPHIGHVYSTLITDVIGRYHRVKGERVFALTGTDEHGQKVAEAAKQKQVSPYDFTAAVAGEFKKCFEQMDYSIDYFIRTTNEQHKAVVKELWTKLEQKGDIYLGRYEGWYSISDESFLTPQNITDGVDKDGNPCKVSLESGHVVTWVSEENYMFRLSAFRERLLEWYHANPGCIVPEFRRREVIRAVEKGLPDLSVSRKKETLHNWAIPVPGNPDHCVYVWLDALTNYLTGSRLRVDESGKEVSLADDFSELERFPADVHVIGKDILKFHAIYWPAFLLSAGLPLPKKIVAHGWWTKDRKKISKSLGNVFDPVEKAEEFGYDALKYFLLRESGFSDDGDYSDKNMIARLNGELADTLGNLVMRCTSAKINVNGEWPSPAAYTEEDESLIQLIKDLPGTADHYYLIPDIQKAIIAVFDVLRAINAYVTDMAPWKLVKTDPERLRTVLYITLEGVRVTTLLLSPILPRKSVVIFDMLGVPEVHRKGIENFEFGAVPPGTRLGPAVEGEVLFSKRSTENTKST
In words: MetRS (T. brucei) enzyme inhibition. In kind it is biochemical.

In the next assay the target is MetRS (C. parvum) (Cryptosporidium parvum, UniProt Q5CVN0). Kind of assay: MetRS (C. parvum) enzyme inhibition. To be noted: read-out: (C) MetRS (C. parvum) IC50. It is filed as biochemical.
The subject of another assay is T. brucei. In words: T. brucei growth inhibition. In kind it is cell-based, Trypanosoma brucei. To be noted: Trypanosoma brucei; read-out: (D) T. brucei EC50.

SMILES strings stand for the structures.

MetRS (C. parvum), sequence (Q5CVN0 entry or part of it): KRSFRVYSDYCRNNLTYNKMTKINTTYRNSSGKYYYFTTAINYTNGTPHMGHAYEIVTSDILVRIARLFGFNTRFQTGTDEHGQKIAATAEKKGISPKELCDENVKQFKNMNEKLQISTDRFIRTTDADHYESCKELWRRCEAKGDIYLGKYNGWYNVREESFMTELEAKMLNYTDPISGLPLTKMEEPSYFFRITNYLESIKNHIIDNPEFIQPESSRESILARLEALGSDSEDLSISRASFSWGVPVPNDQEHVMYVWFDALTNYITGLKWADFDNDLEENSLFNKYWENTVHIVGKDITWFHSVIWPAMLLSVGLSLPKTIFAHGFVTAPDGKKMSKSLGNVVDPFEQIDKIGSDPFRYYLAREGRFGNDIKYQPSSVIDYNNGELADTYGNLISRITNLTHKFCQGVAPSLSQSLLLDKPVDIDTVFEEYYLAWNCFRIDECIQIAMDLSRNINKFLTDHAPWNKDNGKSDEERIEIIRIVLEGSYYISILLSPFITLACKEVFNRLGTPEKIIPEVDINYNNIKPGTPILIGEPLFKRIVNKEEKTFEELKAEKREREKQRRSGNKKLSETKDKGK

A word on the IC50: it is the point on the concentration scale where inhibition reaches its midpoint. In general, EC50 refers to the midpoint of the concentration-response curve. In the case of `Clc1cc(Cl)cc(-c2cccc3nc(Cc4nc5nc(Cl)ccc5[nH]4)cn23)c1` [Compound 2130, 2-({5-chloro-1H-imidazo[4,5-b]pyridin-2-yl}methyl)-5-(3,5-dichlorophenyl)-imidazo[1,2-a]pyridine], the figures for the IC50 against MetRS (T. brucei) and at MetRS (C. parvum) were 190 nM and more than 1000 nM, respectively. Further, the EC50 with T. brucei stood at 196 nM.

Consider `Fc1ccc2[nH]c(Cc3cn4c(-c5cc(Cl)cc(Cl)c5)cccc4n3)nc2n1` [Compound 2131, 5-(3,5-dichlorophenyl)-2-({5-fluoro-1H-imidazo[4,5-b]pyridin-2-yl}methyl)-imidazo[1,2-a]pyridine], for which the IC50 stood at 325 nM on MetRS (T. brucei) and 806 nM on MetRS (C. parvum). In addition, in the assay with T. brucei, the EC50 worked out at 197 nM.

As to `COc1cc(Cl)c(-c2cccc3nc(Cc4nc5nc(Cl)ccc5[nH]4)cn23)cc1Cl` [Compound 2132, 2-({5-chloro-1H-imidazo[4,5-b]pyridin-2-yl}methyl)-5-(2,5-dichloro-4-methoxyphenyl)imidazo[1,2-a]pyridine], the IC50 on MetRS (T. brucei) was less than 40 nM; on MetRS (C. parvum), 656 nM. Besides, in the assay with T. brucei, the EC50 amounted to 508 nM.

`COc1cc(Cl)c(-c2cccc3nc(Cc4nc5nc(F)ccc5[nH]4)cn23)cc1Cl` [Compound 2133, 5-(2,5-dichloro-4-methoxyphenyl)-2-({5-fluoro-1H-imidazo[4,5-b]pyridin-2-yl}methyl)imidazo[1,2-a]pyridine]: the IC50 on MetRS (T. brucei) was less than 40 nM; on MetRS (C. parvum) it was 354 nM. Moreover, the EC50 with T. brucei came to 849 nM.

For `CCn1c(Cc2ccc(Cl)cc2Cl)cn(C(C)c2nc3ccc(Cl)nc3[nH]2)c1=O` (stereo not drawn) [Compound 2142, 1-(1-{5-chloro-1H-imidazo[4,5-b]pyridin-2-yl}ethyl)-4-[(2,4-dichlorophenyl)-methyl]-3-ethyl-2,3-dihydro-1H-imidazol-2-one], the IC50 at MetRS (T. brucei) was less than 40 nM; at MetRS (C. parvum), 89.4 nM. The EC50 in the assay with T. brucei turned out to be 489 nM.

`CCn1c(Cc2ccc(Cl)cc2Cl)cn(C(C)c2nc3nc(F)ccc3[nH]2)c1=O` (stereo not drawn) [Compound 2143, 4-[(2,4-dichlorophenyl)methyl]-3-ethyl-1-(1-{5-fluoro-1H-imidazo[4,5-b]pyridin-2-yl}ethyl)-2,3-dihydro-1H-imidazol-2-one]: the IC50 was less than 40 nM on MetRS (T. brucei) and 96.6 nM at MetRS (C. parvum). Also, the EC50 in the assay with T. brucei turned out to be 806 nM.

Regarding `COc1ccc(-c2cccn3cc(Cc4nc5nc(F)ccc5[nH]4)nc23)c(Cl)c1` [Compound 2148, 8-(2-chloro-4-methoxyphenyl)-2-({5-fluoro-1H-imidazo[4,5-b]pyridin-2-yl}methyl)imidazo[1,2-a]pyridine], the IC50 at MetRS (T. brucei) worked out at 60 nM; on MetRS (C. parvum), 993 nM. Also, the EC50 in the assay with T. brucei is more than 2000 nM.

As to `COc1ccc(-c2cccn3cc(Cc4nc5nc(Cl)ccc5[nH]4)nc23)c(Cl)c1` [Compound 2149, 2-({5-chloro-1H-imidazo[4,5-b]pyridin-2-yl}methyl)-8-(2-chloro-4-methoxyphenyl)imidazo[1,2-a]pyridine], the IC50 at MetRS (T. brucei) was 45 nM; at MetRS (C. parvum), more than 1000 nM. For the same molecule, the EC50 in the assay with T. brucei was more than 2000 nM.

Regarding `COc1ccc(-c2cccn3c(SC)c(Cc4nc5nc(Cl)ccc5[nH]4)nc23)c(Cl)c1` [Compound 2150, 2-({5-chloro-1H-imidazo[4,5-b]pyridin-2-yl}methyl)-8-(2-chloro-4-methoxyphenyl)-3-(methylsulfanyl)imidazo[1,2-a]pyridine], the IC50 at MetRS (T. brucei) was less than 40 nM; at MetRS (C. parvum), 468 nM. The EC50 in the assay on T. brucei turned out to be 897 nM.

Turning to `COc1ccc(-c2cccn3c(S(C)(=O)=O)c(Cc4nc5nc(Cl)ccc5[nH]4)nc23)c(Cl)c1` [Compound 2151, 2-({5-chloro-1H-imidazo[4,5-b]pyridin-2-yl}methyl)-8-(2-chloro-4-methoxyphenyl)-3-methanesulfonylimidazo[1,2-a]pyridine], the figures for the IC50 on MetRS (T. brucei) and at MetRS (C. parvum) were less than 40 nM and 614 nM, respectively. Also, the EC50 in the assay on T. brucei amounted to 364 nM.

For `Clc1ccc(Cc2cn(Cc3nc4nc(Cl)ccc4[nH]3)c(SCc3ccccn3)n2)c(Cl)c1` [Compound 2157, 2-({[1-({5-chloro-1H-imidazo[4,5-b]pyridin-2-yl}methyl)-4-[(2,4-dichlorophenyl)methyl]-1H-imidazol-2-yl]sulfanyl}methyl)pyridine], the results for the IC50 against MetRS (T. brucei) and at MetRS (C. parvum) were less than 40 nM and 107 nM, respectively. Further, in the assay with T. brucei, the EC50 is more than 200 nM.

Regarding `COc1ccc(-c2cccc3c2CN(Cc2nc4nc(Cl)ccc4[nH]2)CC3)c(Cl)c1` [Compound 2161, 2-({5-chloro-1H-imidazo[4,5-b]pyridin-2-yl}methyl)-8-(2-chloro-4-methoxyphenyl)-1,2,3,4-tetrahydroisoquinoline], the IC50 against MetRS (T. brucei) is less than 40 nM; on MetRS (C. parvum) it was 252 nM. Further, the EC50 in the assay on T. brucei is 1050 nM.

Take `COc1ccc(-c2cccc3nc(Cc4nc5nc(Cl)ccc5[nH]4)oc23)c(Cl)c1` [Compound 2162, 2-({5-chloro-1H-imidazo[4,5-b]pyridin-2-yl}methyl)-7-(2-chloro-4-methoxyphenyl)-1,3-benzoxazole]: the results for the IC50 at MetRS (T. brucei) and at MetRS (C. parvum) were less than 40 nM and 90.4 nM, respectively. Moreover, the EC50 in the assay with T. brucei came to 175 nM.

With `CCOc1ccc(-c2cccc3nc(Cc4nc5nc(Cl)ccc5[nH]4)cn23)c(Cl)c1` [Compound 2164, 2-({5-chloro-1H-imidazo[4,5-b]pyridin-2-yl}methyl)-5-(2-chloro-4-ethoxyphenyl)imidazo[1,2-a]pyridine], the IC50 against MetRS (T. brucei) was 143 nM; on MetRS (C. parvum), more than 1000 nM. Further, the EC50 in the assay with T. brucei was 1910 nM.

Take `Cc1ccc(-c2cccc3nc(Cc4nc5nc(Cl)ccc5[nH]4)cn23)c(Cl)c1` [Compound 2165, 2-({5-chloro-1H-imidazo[4,5-b]pyridin-2-yl}methyl)-5-(2-chloro-4-methylphenyl)imidazo[1,2-a]pyridine]: the figures for the IC50 against MetRS (T. brucei) and on MetRS (C. parvum) were less than 40 nM and 326 nM, respectively. Also, the EC50 with T. brucei is more than 200 nM.

Regarding `COc1ccc(-c2cccc3c2CN(Cc2nc4nc(F)ccc4[nH]2)CC3)c(Cl)c1` [Compound 2167, 8-(2-chloro-4-methoxyphenyl)-2-((5-fluoro-1H-imidazo[4,5-b]pyridin-2-yl)methyl)-1,2,3,4-tetrahydroisoquinoline], the results for the IC50 against MetRS (T. brucei) and at MetRS (C. parvum) were 203 nM and 505 nM, respectively. Moreover, the EC50 in the assay on T. brucei is more than 2000 nM.

Turning to `COc1ccc(-c2cnc3ccc(NCc4nc5nc(F)ccc5[nH]4)cn23)c(Cl)c1` [Compound 2173, 3-(2-chloro-4-methoxyphenyl)—N-((5-fluoro-1H-imidazo[4,5-b]pyridin-2-yl)methyl)imidazo[1,2-a]pyridin-6-amine], the IC50 against MetRS (T. brucei) was found to be 57 nM; on MetRS (C. parvum), 185 nM. Further, the concentration giving a half-maximal response (EC50) in the assay on T. brucei is more than 2000 nM.

For the molecule `COc1ccc(-n2ccc(=O)c3cc(F)c(Cc4nc5nc(Cl)ccc5[nH]4)cc32)c(Cl)c1` [Compound 2178, 7-((5-chloro-1H-imidazo[4,5-b]pyridin-2-yl)methyl)-1-(2-chloro-4-methoxyphenyl)-6-fluoroquinolin-4(1H)-one], the IC50 was found to be 116 nM at MetRS (T. brucei) and 881 nM on MetRS (C. parvum). In addition, the EC50 with T. brucei came to 5660 nM.

For the molecule `COc1ccc(-c2ccc(N)c3nc(Cc4nc5cc(Cl)ccc5[nH]4)cn23)c(Cl)c1` [Compound 2179, 2-[(6-chloro-1H-1,3-benzodiazol-2-yl)methyl]-5-(2-chloro-4-methoxyphenyl)imidazo[1,2-a]pyridin-8-amine], the IC50 at MetRS (T. brucei) is less than 40 nM; on MetRS (C. parvum), 76 nM. For the same molecule, the concentration giving a half-maximal response (EC50) with T. brucei was 183 nM.

Consider `COc1ccc(-c2nn(C)c3c2CN(Cc2nc4nc(Cl)ccc4[nH]2)CC3)c(Cl)c1` [Compound 2187, 5-((5-chloro-1H-imidazo[4,5-b]pyridin-2-yl)methyl)-3-(2-chloro-4-methoxyphenyl)-1-methyl-4,5,6,7-tetrahydro-1H-pyrazolo[4,3-c]pyridine], for which the IC50 stood at 117 nM on MetRS (T. brucei) and 113 nM on MetRS (C. parvum). Moreover, in the assay on T. brucei, the EC50 is more than 2000 nM.

Consider `COc1ccc(-c2c3c(nn2C)CCN(Cc2nc4nc(Cl)ccc4[nH]2)C3)c(Cl)c1` [Compound 2188, 5-((5-chloro-1H-imidazo[4,5-b]pyridin-2-yl)methyl)-3-(2-chloro-4-methoxyphenyl)-2-methyl-4,5,6,7-tetrahydr0-2H-pyrazolo[4,3-c]pyridine], for which the IC50 at MetRS (T. brucei) is less than 40 nM; at MetRS (C. parvum), 443 nM. Besides, the EC50 with T. brucei was determined as 808 nM.

As to `Clc1ccc(Cn2cnc(Cc3nc4nc(Cl)ccc4[nH]3)c2)c(Cl)c1` [Compound 2190, 4-({5-chloro-1H-imidazo[4,5-b]pyridin-2-yl}methyl)-1-[(2,4-dichlorophenyl)methyl]-1H-imidazole], the IC50 at MetRS (T. brucei) is less than 40 nM; on MetRS (C. parvum) it was 91.7 nM. Moreover, the EC50 with T. brucei was 174 nM.

The record behind these values is US11584744B2 (UNIVERSITY OF WASHINGTON, priority 2017, dated 2023).
